{
  "source": "patent US9096889B2",
  "about": "“Compositions and methods for monitoring transmembrane trafficking” (Promega Corporation, priority 2011, dated 2015)",
  "key": {"[1]": {"molecular_target": "beta2-adrenergic receptor (B2AR) fused to firefly luciferase (luc2) (UniProt P07550+P08659, E27Q/G16R/N119G/N50D)", "sequence (P08659+P07550 fused P08659:N50D/P08659:N119G/P07550:G16R/P07550:E27Q)": "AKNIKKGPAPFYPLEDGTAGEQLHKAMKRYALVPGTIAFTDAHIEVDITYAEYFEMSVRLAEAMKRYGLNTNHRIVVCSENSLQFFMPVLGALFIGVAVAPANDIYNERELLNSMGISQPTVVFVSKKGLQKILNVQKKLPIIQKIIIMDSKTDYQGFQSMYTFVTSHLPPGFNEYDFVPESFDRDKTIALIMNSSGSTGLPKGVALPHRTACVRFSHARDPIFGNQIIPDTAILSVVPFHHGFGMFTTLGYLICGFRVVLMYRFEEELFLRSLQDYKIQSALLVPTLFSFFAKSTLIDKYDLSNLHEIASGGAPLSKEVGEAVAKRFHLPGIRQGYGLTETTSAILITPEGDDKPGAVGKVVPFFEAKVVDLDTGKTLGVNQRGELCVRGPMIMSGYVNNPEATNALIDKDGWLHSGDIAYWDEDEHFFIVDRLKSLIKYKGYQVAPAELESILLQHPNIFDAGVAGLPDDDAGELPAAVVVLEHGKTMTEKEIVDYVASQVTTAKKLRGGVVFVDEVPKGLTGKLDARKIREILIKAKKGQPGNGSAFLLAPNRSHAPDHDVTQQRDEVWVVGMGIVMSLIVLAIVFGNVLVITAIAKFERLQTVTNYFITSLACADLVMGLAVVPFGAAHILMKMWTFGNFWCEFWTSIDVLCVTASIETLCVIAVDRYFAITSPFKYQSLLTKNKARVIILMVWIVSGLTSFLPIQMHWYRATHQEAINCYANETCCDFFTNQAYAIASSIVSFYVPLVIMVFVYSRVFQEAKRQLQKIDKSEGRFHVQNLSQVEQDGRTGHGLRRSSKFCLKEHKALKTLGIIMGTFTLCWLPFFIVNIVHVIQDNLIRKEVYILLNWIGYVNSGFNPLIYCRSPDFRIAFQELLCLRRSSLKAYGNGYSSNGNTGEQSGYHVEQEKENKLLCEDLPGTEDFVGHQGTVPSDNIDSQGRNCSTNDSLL", "settings": "HEK293 cells, serially diluted agonist 30 minutes, trypsin/EDTA, D-luciferin without Mg/ATP, FIG. 2F"}, "AT1R/FFluc fusion": {"test_system": "AT1R/FFluc fusion", "test": "AT1R/FFluc fusion endocytosis assay (reduction of luciferase signal)", "assay_type": "cell-based", "settings": "varying concentrations, 15 minutes stimulation, FIG. 8", "protocol": "For FFluc-V2R and FFluc-AT1R, plasmid DNA was transfected at 5 ng/well and 0.16 ng/well respectively. For transfection into HeLa cells, plasmid DNA was diluted 1:10 into carrier DNA yielding 5 ng/well plasmid DNA. […] 50 μL per well of luciferase substrate, D-luciferin, was then added to a final concentration of 0.2 mM D-luciferin, 2 mM MgCl2, and 2 mM ATP, and the cells incubated for 30 minutes at 37° C. For AT1R and V2R, 0.02 mM D-luciferin was used. For the luc2-B2AR experiment, 0.01 mM D-luciferin was used. For the FFLuc experiment using the D-luciferin derivative, PBI-3102, 0.02 mM substrate was used. Immediately prior to stimulation, luminescence was measured on a GLOMAX Multi Plus plate reader set to 0.5 s of integration time. Cells were then stimulated with the agonist indicated below ( 1/10 volume addition), and luminescence measured every two minutes in real-time. […] As controls, cells were treated with vehicle (Opti-MEM containing either DMSO or water). Normalized luminescence was determined by dividing the luminescence value (RLUs) of each sample by the luminescence from the same sample prior to stimulation (SEE FIG. 1A-D).\nCells were transfected with plasmid DNA encoding AT1R/FFluc fusion. […] Immediately prior to stimulation, luminescence was measured. Cells were then stimulated with varying concentrations of TRV120027 for 15 minutes, and luminescence detected. […]"}},
  "data": [
    {"molecule": "NC(=O)CC[C@@H]1NC(=O)[C@H](Cc2ccccc2)NC(=O)[C@H](Cc2ccc(O)cc2)NC(=O)[C@@H](N)CSSC[C@@H](C(=O)N2CCC[C@H]2C(=O)N[C@@H](CCCN=C(N)N)C(=O)NCC(N)=O)NC(=O)[C@H](CC(N)=O)NC1=O", "note": "[arginine vasopressin]", "values": [
      {"measurement": "raw luminescence signal (endocytosis, gain of signal), negative control (B2AR) fusion proteins", "setting": "[1]", "value": "no increase"}
    ]},
    {"molecule": "CC[C@H](C)[C@H](NC(=O)[C@H](Cc1ccc(O)cc1)NC(=O)[C@@H](NC(=O)[C@H](CCCNC(=N)N)NC(=O)CNC)C(C)C)C(=O)N[C@@H](Cc1cnc[nH]1)C(=O)N1CCC[C@H]1C(=O)N[C@H](C)C(=O)O", "note": "[TRV120027]", "values": [
      {"measurement": "internalization of AT1R/FFluc fusion proteins (normalized luminescence)", "setting": "AT1R/FFluc fusion", "value": "detected internalization"}
    ]}
  ]
}
